We go through one compound from article PMC10498452, “Targeted Protein Degradation: Advances, Challenges, and Prospects for Computational Methods” (Journal of Chemical Information and Modeling, 2023).

One experiment addresses T1, SMARCA2 (Homo sapiens, UniProt P51531).
T1 construct: luminescence-based reporter assays with endogeneous HiBiT-tagged proteins have been developed that yield degradation profiles; endogenous in cells
Put plainly: HiBiT assay, degradation profiles. The format is cell-based. The note with it: VHL-recruiting degrader. An excerpt: To monitor the intracellular degradation, luminescence-based reporter assays with endogeneous HiBiT-tagged proteins have been developed that yield degradation profiles, from which maximum degradation levels (Dmax) as well as the half-maximum degradation concentration (DC50) can be derived to estimate the potency of a degrader molecule,[48] which is instrumental in degrader design (see Section 4.2). As a matter of fact, variants of this technology are applied to characterize the different steps in TPD, such as target engagement, ternary complex formation, and target ubiquitination,[115] providing complementary kinetic information to the other experimental approaches discussed.
Figure 6 lists all of our designs in this study (Linkers 1–6) along with ACBI1, a previously optimized VHL-recruiting degrader of SMARCA2.[28] Informed by the random forest classifier, which was trained and validated on about 100 known compounds (model accuracy of 83%), the designs generally involve rigid linkers that contain (aromatic) ring structures with low molecular weight. […] By contrast, 34 designs that incorporated typical alkyl and PEG linkers spanning 4 to ∼20 atoms as well as known linker moieties, such as triazoles and phenyl rings (o, m, or p-substituted to provide different geometries), only produced two active degraders.
Figure 7 Experimental confirmation of degrader designs. […]

For experiment [1], the target named is SMARCA2-VHL ternary complex (Homo sapiens, UniProt P40337+P51531). Put plainly: AlphaLISA assay measuring ternary complex formation. It counts as binding. An excerpt:
Competitive-binding and proximity-based assays can also probe the degree of degrader–POI engagement or ternary complex formation (Table 1), thus allowing the determination of binding affinities and cooperativity. These techniques measure changes in the polarization of a fluorescently labeled target protein upon binding to a degrader, as in fluorescence polarization (FP),[85] or detect intensity changes, upon ternary complex formation, in the fluorescence or luminescence signal emitted from beads tagged to the POI or E3 ligase, as in time-resolved Förster resonance energy-transfer (TR-FRET)[86] or in the amplified luminescent proximity homogeneous assay (ALPHA).[87] In the proximity ligation assay (PLA), a technology that is gaining popularity in TPD research, the signal is even further amplified through antibody-attached oligonucleotide hybridization.[88] These methods have been used in TPD studies for the identification of selective degraders and for the high-throughput screening of degrader designs.[39]−[41],[89] In particular, ALPHA has a high dynamic range and signal-to-noise ratio and, when applied in a titration experiment (usually set up as an immunoassay called AlphaLISA), it yields relative populations of ternary complexes as a function of degrader concentration and is routinely employed as a tool in degrader design projects (see Section 4.2). […]

In general, DC50 refers to the concentration giving 50% degradation. Read a low DC50 as a more potent degrader. One may read the Dmax as the greatest extent of degradation seen. A lower Dmax goes with shallow degradation.

T1 sequence (P51531 whole entry): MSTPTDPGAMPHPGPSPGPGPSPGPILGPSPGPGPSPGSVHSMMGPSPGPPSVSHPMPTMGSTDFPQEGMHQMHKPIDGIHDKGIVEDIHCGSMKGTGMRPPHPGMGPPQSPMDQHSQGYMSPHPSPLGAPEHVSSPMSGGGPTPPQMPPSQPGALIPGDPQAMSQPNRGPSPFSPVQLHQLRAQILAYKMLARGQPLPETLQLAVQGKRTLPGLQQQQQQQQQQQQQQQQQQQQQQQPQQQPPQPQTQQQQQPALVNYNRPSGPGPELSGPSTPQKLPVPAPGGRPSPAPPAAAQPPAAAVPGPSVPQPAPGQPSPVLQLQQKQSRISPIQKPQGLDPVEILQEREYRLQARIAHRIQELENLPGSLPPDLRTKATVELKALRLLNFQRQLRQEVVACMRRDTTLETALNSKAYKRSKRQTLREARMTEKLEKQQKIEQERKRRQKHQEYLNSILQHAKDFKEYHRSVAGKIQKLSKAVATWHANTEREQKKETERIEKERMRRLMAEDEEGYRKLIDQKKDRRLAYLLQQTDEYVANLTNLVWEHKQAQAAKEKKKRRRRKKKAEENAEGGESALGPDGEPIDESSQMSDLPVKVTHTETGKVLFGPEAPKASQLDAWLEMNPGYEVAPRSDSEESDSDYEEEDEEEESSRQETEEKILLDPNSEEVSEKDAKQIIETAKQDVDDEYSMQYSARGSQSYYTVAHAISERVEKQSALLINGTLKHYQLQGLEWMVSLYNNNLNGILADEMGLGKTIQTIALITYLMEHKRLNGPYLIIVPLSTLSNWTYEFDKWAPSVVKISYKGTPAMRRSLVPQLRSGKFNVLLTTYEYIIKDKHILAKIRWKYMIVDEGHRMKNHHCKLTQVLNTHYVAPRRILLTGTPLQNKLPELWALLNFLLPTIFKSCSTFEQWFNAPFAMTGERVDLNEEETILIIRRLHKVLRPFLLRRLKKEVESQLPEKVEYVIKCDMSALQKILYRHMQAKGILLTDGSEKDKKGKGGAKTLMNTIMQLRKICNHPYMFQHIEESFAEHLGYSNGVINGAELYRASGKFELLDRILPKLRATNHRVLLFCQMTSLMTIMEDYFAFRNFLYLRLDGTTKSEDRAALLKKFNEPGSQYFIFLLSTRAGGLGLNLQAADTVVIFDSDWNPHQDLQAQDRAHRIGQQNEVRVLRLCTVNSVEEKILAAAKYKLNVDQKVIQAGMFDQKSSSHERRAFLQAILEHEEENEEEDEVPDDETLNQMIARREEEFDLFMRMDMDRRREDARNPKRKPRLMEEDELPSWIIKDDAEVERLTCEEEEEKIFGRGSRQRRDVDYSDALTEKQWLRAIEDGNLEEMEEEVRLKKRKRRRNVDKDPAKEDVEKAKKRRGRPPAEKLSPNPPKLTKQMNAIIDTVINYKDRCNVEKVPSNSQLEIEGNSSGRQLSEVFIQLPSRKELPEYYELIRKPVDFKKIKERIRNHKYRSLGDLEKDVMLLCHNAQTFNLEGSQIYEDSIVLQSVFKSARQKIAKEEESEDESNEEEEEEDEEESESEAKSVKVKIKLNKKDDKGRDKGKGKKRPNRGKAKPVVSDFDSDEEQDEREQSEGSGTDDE
Chain of SMARCA2-VHL ternary complex (P51531 1373-1511 limits assumed): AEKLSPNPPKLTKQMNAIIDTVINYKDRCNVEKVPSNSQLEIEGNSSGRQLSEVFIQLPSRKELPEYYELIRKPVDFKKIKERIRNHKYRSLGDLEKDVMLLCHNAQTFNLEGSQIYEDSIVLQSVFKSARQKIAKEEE
Chain of SMARCA2-VHL ternary complex (P40337 54-213 limits assumed): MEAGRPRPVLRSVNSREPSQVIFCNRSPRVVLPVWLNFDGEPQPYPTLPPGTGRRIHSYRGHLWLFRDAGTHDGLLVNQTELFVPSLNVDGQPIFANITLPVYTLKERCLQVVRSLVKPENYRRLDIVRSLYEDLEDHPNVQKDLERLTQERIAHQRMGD
Chain of SMARCA2-VHL ternary complex (Q15369 17-112 partner limits assumed): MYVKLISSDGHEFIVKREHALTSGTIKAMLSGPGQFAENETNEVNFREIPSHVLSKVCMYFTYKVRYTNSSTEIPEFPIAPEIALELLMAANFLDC
Chain of SMARCA2-VHL ternary complex (Q15370 1-104 partner limits assumed): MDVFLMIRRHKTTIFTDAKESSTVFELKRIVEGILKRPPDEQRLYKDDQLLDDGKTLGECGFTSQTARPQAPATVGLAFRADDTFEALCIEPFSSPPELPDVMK

On to `Cc1ncsc1-c1ccc(CNC(=O)[C@@H]2C[C@@H](O)CN2C(=O)[C@@H](NC(=O)C2(F)CC2)C(C)(C)C)c(OCCOc2ccc(CN3CCN(c4cc(-c5ccccc5O)nnc4N)CC3)cc2)c1` [ACBI1], for which, on SMARCA2, the DC50 worked out at 37 nM and the Dmax stood at 94%. Besides, the “AlphaLISA (% of control)” value in experiment [1] is reported as 100 % of control.
